Measurements taken from patent US4789630A, “Ionic compounds containing the cationic meriquinone of a benzidine” (Cetus Corporation, priority 1986, dated 1988).
In brackets after ≈: the same amount, converted by molar mass.

Columns and labels:
[1] = Solubility of TMB in a series of buffers; type: physicochemical; conditions: for solubility: read-out: Solubility at 30.9 C
Description: These are stoichiometric concentrations, uncorrected for ionization at pH 5.0. […] Each wash involved a total volume of 1.5 ml (pellet volume of about 0.3 ml) in an Eppendorf polypropylene centrifuge tube. […] At 30-60 min intervals, the crystal suspensions were spun 3-5 min at room temperature in a Fisher micro-centrifuge. […] After scanning, the solutions and pellets were returned to the equilibration tubes for renewed shaking. Repeat measurements were taken until precision within 20% was obtained. […] Care was taken to assure that solid meriquinone salt and solid TMB were present in each tube. Excess (saturating) TMB was added to suppress the dissociation of meriquinone charge-transfer complex into component quinone diimine and TMB (see FIG. 1). […] If the concentration was too high to measure undiluted with a 1 cm light path, the scan was performed on an undiluted sample with a 2 mm light path or an appropriately diluted sample (later discarded) with a 1 cm light path.

[2] = molecular target: T1, horseradish peroxidase (HRP) (Armoracia rusticana, UniProt P00433); test: Kinetics of TMB oxidation by H2O2 and HRP in pH 3.9 fumarate-EDTA buffer; type: biochemical; conditions: 0.31 mM TMB, 3.0 mM H2O2, 10 mM Na fumarate, 1 mM EDTA, pH 3.92, 25 C
T1 sequence (P00433 31-353): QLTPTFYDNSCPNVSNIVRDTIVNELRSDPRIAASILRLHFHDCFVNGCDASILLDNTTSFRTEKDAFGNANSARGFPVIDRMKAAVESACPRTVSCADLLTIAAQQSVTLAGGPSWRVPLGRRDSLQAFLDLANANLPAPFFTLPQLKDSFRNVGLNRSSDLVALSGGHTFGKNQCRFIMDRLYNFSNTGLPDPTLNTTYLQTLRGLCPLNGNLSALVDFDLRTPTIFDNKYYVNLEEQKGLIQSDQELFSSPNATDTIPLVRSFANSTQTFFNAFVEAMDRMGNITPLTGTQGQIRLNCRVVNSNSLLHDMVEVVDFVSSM
Description: (§1) Stock HRP solutions were prepared in 0.10M NaCl, 1.0 mM Na phosphate, pH 6.0 to be 22 ng/ml or 0.43 ng/ml in HRP, shortly before assay, HRP-catalyzed oxidation of TMB by H2 O2 was initiated by adding 20 or 2.0 μl of […] or 20 or 10 μl of 0.43 ng/ml HRP to 1.00 ml of the assay solution at 25° C. […] At the two lower HRP concentrations (0.22 and 0.11 pM in the cuvette), the reaction was followed for 30 minutes. At the end of each reaction interval, replicate 100 μl volumes of reaction mixture were spotted on a Nuclepore polycarbonate filter (3 μm pore size) and dried by gentle suction to give deposits 3-4 mm in diameter.
The initial velocity was transformed from units of absorbance per time to reciprocal time (turnover number) by dividing by the meriquinone extinction coefficient, 3.9×10^4 M^-1 cm^-1, and by the HRP concentration. […] The transition time is the time to crystal nucleation. […] The A652 of the 30 minute reaction mixture for 0.11 pM HRP was below 0.03, the approximate visual threshold, so that filtration trapping served to concentrate the signal to improve visibility. […] In addition, a white membrane would offer sharper visual contrast than the slightly yellow, translucent, polycarbonate. The transition time has a very shallow HRP concentration dependence, so that even lower HRP concentrations are unlikely to require assay times longer than 30 minutes in order to permit crystallization to occur. The transition time probably could be lowered by adding anionic latex microspheres which might serve to nucleate crystallization.

[3] = Crystal nucleation and filter trapping of the fumarate salt of the meriquinone of TMB; type: physicochemical; conditions: 10 mM Na fumarate, pH 3.92, 25 C
Description: as §1, with “the” for “the two lower HRP concentrations (0.22 and 0.11 pM in the cuvette), the reaction was followed for 30 minutes. At the”
The initial velocity was transformed from units of absorbance per time to reciprocal time (turnover number) by dividing by the meriquinone extinction coefficient, 3.9×10^4 M^-1 cm^-1, and by the HRP concentration. […] The transition time is the time to crystal nucleation.

horseradish peroxidase = molecular target: T2, horseradish peroxidase (Armoracia rusticana, UniProt P00433); test: Horseradish peroxidase activity with TMB as chromogenic substrate, pH dependence; type: biochemical; conditions: from pH 5.0 to pH 4.0
T2 sequence (P00433 31-353): T1 sequence (P00433 31-353)
Description: (§2) Regarding step (e), three independent variables (apart from temperature) most strongly influence horseradish […] activity with TMB as chromogenic substrate: TMB concentration, H2 O2 concentration, and pH. […] For relatively short assays (0-10 min.), however, suicide is not severe, and initial velocity is the most important indicator of enzyme activity. Initial velocity rises monotonically with TMB concentration, and is almost proportional to TMB concentration at a H2 O2 concentration of greater than 2 mM. The pH dependence of initial velocity at constant TMB concentration indicates an optimum pH at 4. The pH dependence of TMB solubility indicates a monotonic and increasingly steep rise as the pH is lowered from 5. […] Therefore, a pH of 3.5-4.5 is the preferred pH range for step (e), more preferably pH 4.0, if the substituted benzidine is TMB and the oxidation catalyst is horseradish peroxidase. The optimum horseradish peroxidase assay conditions are at room temperature, pH 4.0, 0.4 mM (saturating) TMB, and 2-3 mM H2 O2.

[4] = pH dependence of TMB solubility (saturating TMB); type: physicochemical; conditions: room temperature, pH 4.0; read-out: saturating TMB concentration
Description: as §2

[5] = Solubilities of salts of the meriquinone of TMB (equilibration of solid salt with buffer, A650)
Description: These are stoichiometric concentrations, uncorrected for ionization at pH 5.0. […] Each wash involved a total volume of 1.5 ml (pellet volume of about 0.3 ml) in an Eppendorf polypropylene centrifuge tube. […] At 30-60 min intervals, the crystal suspensions were spun 3-5 min at room temperature in a Fisher micro-centrifuge. […] After scanning, the solutions and pellets were returned to the equilibration tubes for renewed shaking. Repeat measurements were taken until precision within 20% was obtained. […] Care was taken to assure that solid meriquinone salt and solid TMB were present in each tube. Excess (saturating) TMB was added to suppress the dissociation of meriquinone charge-transfer complex into component quinone diimine and TMB (see FIG. 1). […] These spectra contained absorbance peaks at 370 and 650 nm characteristic of meriquinone and a very small shoulder at 450 nm assigned to quinone diimine; a much larger peak near 280 nm confirmed the presence of excess TMB. […] If the concentration was too high to measure undiluted with a 1 cm light path, the scan was performed on an undiluted sample with a 2 mm light path or an appropriately diluted sample (later discarded) with a 1 cm light path.
Solubilities at 0 C. were determined for all solutions in which they were high enough for accurate measurement.
The dashed lines were visually fitted. […]

With `Cc1cc(-c2cc(C)c(N)c(C)c2)cc(C)c1N` [TMB, 3,3',5,5'-tetramethylbenzidine] the “Solubility Ratio: 30.9 C/0.0 C” value ([1]; acetate buffer, pH 5.0, 0.10M) was 2.4, the solubility ([1]; aqueous buffer, acetate buffer, pH 5.0, 0.10M) was 170 µM (≈ 40.9 µg/mL) and the solubility ([1]; aqueous buffer, citrate buffer, pH 5.0, 0.10M) was 170 µM (≈ 40.9 µg/mL). It also gave a solubility ([1]; aqueous buffer, glutarate buffer, pH 5.0, 0.10M) of 170 µM (≈ 40.9 µg/mL), a solubility ([1]; aqueous buffer, maleate buffer, pH 5.0, 0.10M) of 210 µM (≈ 50.5 µg/mL) and a solubility ([1]; aqueous buffer, malonate buffer, pH 5.0, 0.10M) of 160 µM (≈ 38.5 µg/mL). The solubility ([1]; aqueous buffer, phosphate buffer, pH 5.0, 0.10M) was 160 µM (≈ 38.5 µg/mL), the “Solubility Ratio: 30.9 C/0.0 C” value ([1]; citrate buffer, pH 5.0, 0.10M) was 2.3 and the “Solubility Ratio: 30.9 C/0.0 C” value ([1]; fumarate buffer, pH 5.0, 0.10M) was 3.9. For the same molecule, the solubility ([1]; fumarate buffer, pH 5, aqueous buffer) was 160 µM (≈ 38.5 µg/mL), the “Solubility Ratio: 30.9 C/0.0 C” value ([1]; glutarate buffer, pH 5.0, 0.10M) was 2.0 and the “Solubility Ratio: 30.9 C/0.0 C” value ([1]; maleate buffer, pH 5.0, 0.10M) was 7.6. The “Solubility Ratio: 30.9 C/0.0 C” value ([1]; malonate buffer, pH 5.0, 0.10M) was 1.8, the “Solubility Ratio: 30.9 C/0.0 C” value ([1]; oxalate buffer, pH 5.0, 0.10M) was 12 and the solubility ([1]; oxalate buffer, pH 5, aqueous buffer) was 160 µM (≈ 38.5 µg/mL). For the same molecule, the “Solubility Ratio: 30.9 C/0.0 C” value ([1]; phosphate buffer, pH 5.0, 0.10M) was 2.0, the “Solubility Ratio: 30.9 C/0.0 C” value ([1]; sulfate buffer, pH 5.0, 0.10M) was 1.9 and the solubility ([1]; sulfate buffer, pH 5, aqueous buffer) was 150 µM (≈ 36.1 µg/mL). The Vinitial ([2]; [HRP] 0.11 x 10^-12 M) was 4.4 × 10^-5 WA652 S^-1, the Vinitial ([2]; [HRP] 0.21 x 10^-12 M) was 8.0 × 10^-5 WA652 S^-1 and the Vinitial ([2]; [HRP] 1.1 x 10^-12 M) was 4.1 × 10^-4 WA652 S^-1. The Vinitial ([2]; [HRP] 11 x 10^-12 M) was 4.2 × 10^-3 WA652 S^-1, the “A652 at Transition” value ([3]; [HRP] 0.11 x 10^-12 M) was 0.025 and the “Transition Time (time to crystal nucleation)” value (shortened to “Transition Time”) ([3]; [HRP] 0.11 x 10^-12 M) was 10 min. The “A652 at Transition” value ([3]; [HRP] 0.21 x 10^-12 M) was 0.04, the “Transition Time” value ([3]; [HRP] 0.21 x 10^-12 M) was 10 min and the “A652 at Transition” value ([3]; [HRP] 1.1 x 10^-12 M) was 0.08. For the same molecule, the “Transition Time” value ([3]; [HRP] 1.1 x 10^-12 M) was 3 to 4 min, the “A652 at Transition” value ([3]; [HRP] 11 x 10^-12 M) was 0.25-0.50 and the “Transition Time” value ([3]; [HRP] 11 x 10^-12 M) was 1 to 2 min. For the same molecule, the “increase of initial velocity at saturating TMB” value (horseradish peroxidase) was “four-fold increase” and the solubility [4] was 400 µM (≈ 96.1 µg/mL).
For Maleate, the “Solubility Ratio: 25.2 C/0.0 C” value ([5]; averaged for the different stated concentrations of each salt, buffers pH 5.0 at room temperature) was 8.1 and the “Molar Solubility in 0.1 M Anion” value ([5]; extrapolated, pH 5.0, 10% ethanol, 0.10M sodium acetate, 25.2 C) was 4 × 10^-8 Molar.
